The record followed here is US20260159520A1, “HETEROBIFUNCTIONAL COMPOUNDS AND METHODS OF TREATING DISEASE” (Halda Therapeutics OpCo, Inc., priority 2022, published 2026).

Assay type in all cases: cell-based
In assay [1] the test system is VCaP cells. The experiment in a line: Cellular growth inhibition assay for VCaP cells. The note with it: Homo sapiens, 72 hours, CellTiter-Glo 2.0. (In general: In ATP-based viability assays light output follows the ATP content of the culture.)
The test system of assay [2] is T-Rex 293 cell line SC3 cells lacking increased expression of androgen receptor protein. The assay is described as follows: Cellular growth inhibition, T-Rex 293 SC3 cells without doxycycline. The note with it: not exposed to doxycycline, 72 hours, CellTiter-Glo 2.0. In short, it runs like this: (§1)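 Doxycycline (10 ng/mL) was either included or omitted to toggle wild-type androgen receptor expression in SC3 cells, a T-Rex 293 clone, grown in stripped-serum, phenol red-free medium. After 72 hours with compound, viable cells were quantified by CellTiter-Glo 2.0.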

The subject of assay [3] is T47D cells. The experiment in a line: Cellular growth inhibition assay for T47D cells. The settings on record: Homo sapiens, 72 hours, CellTiter-Glo 2.0. A digest of the protocol:
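Growth inhibition as GI50, fitted with four parameters to CellTiter-Glo luminescence after 72 h of compound exposure (0.5% DMSO). Cells were T47D, grown in insulin-supplemented (0.2 units/mL) DMEM with 10% FBS and treated one day post-seeding.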

Assay [4] has as its system T-Rex 293 cell line SC3 cells having increased expression of androgen receptor protein. The assay is described as follows: Cellular growth inhibition, T-Rex 293 SC3 cells with doxycycline (increased androgen receptor expression). The note with it: with 10 ng/mL doxycycline (increased androgen receptor), 72 hours, CellTiter-Glo 2.0. A digest of the protocol: as §1

The GI50 is the concentration at which growth is held to half of that of the control. Low values mean more potent growth inhibition, high ones less potent growth inhibition. Regarding `CCc1cnn2c(NCc3ccc(OCC4CCN(CC5CCN(c6ncc(C(=O)N[C@H]7C(C)(C)[C@H](Oc8ccc(C#N)c(Cl)c8)C7(C)C)cn6)CC5)CC4)nc3)cc(N3CCCC[C@H]3CCO)nc12` [Compound I-51], the GI50 in assay [1] was less than 100 nM; in assay [2], 100 to 1000 nM; in assay [3] it was less than 500 nM; in assay [4], less than 100 nM.
In the case of `CCc1cnn2c(NCc3ccc(OCCCN4CCN(CC5CCN(c6ccc(C(=O)N[C@H]7C(C)(C)[C@H](Oc8ccc(C#N)c(Cl)c8)C7(C)C)cn6)CC5)CC4)nc3)cc(N3CCCC[C@@H]3CCO)nc12` [Compound I-55, N-((1r,3r)-3-(3-chloro-4-cyanophenoxy)-2,2,4,4-tetramethylcyclobutyl)-6-(4-((4-(3-((5-(((3-ethyl-5-((R)-2-(2-hydroxyethyl)piperidin-1-yl)pyrazolo[1,5-a]pyrimidin-7-yl)amino)methyl)pyridin-2-yl)oxy)propyl)piperazin-1-yl)methyl)piperidin-1-yl)nicotinamide], the GI50 in assay [1] is less than 100 nM; in assay [2], 100 to 1000 nM; in assay [3] it was less than 500 nM; in assay [4], less than 100 nM.
For `CCc1cnn2c(NCc3ccc(OCCCN4CCN(C5CN(c6ncc(C(=O)N[C@H]7C(C)(C)[C@H](Oc8ccc(C#N)c(Cl)c8)C7(C)C)cn6)C5)CC4)nc3)cc(N3CCCC[C@H]3CCO)nc12` [Compound I-60], the concentration for 50% growth inhibition (GI50) was less than 100 nM in assay [1], less than 100 nM in assay [2], less than 500 nM in assay [3] and less than 100 nM in assay [4].
As for `CCc1cnn2c(NCc3ccc(OCCCN4CCC(C5CN(c6ncc(C(=O)N[C@H]7C(C)(C)[C@H](Oc8ccc(C#N)c(Cl)c8)C7(C)C)cn6)C5)CC4)nc3)cc(N3CCCC[C@H]3CCO)nc12` [Compound I-61], the 50% growth inhibitory concentration (GI50) in assay [1] is less than 100 nM; in assay [2] it was 100 to 1000 nM; in assay [3], less than 500 nM; in assay [4] it was less than 100 nM.
As for `CCc1cnn2c(NCc3ccc(N4CCC(CN5CCC6CN(c7ncc(C(=O)N[C@H]8C(C)(C)[C@H](Oc9ccc(C#N)c(Cl)c9)C8(C)C)cn7)CCC6C5)CC4)nc3)cc(N3CCCC[C@H]3CCO)nc12` (stereo partly shown) [Compound I-71], the GI50 is 1000 to 3500 nM in assay [1], more than 3500 nM in assay [2], 1500 to 3000 nM in assay [3] and less than 100 nM in assay [4].
With `CCc1cnn2c(NCc3ccc(N4CC(OCCN5CC6CN(c7ncc(C(=O)N[C@H]8C(C)(C)[C@H](Oc9ccc(C#N)c(Cl)c9)C8(C)C)cn7)CC6C5)C4)nc3)cc(N3CCCC[C@H]3CCO)nc12` (stereo partly shown) [Compound I-72], the GI50 in assay [1] lay in the range of 100 to 1000 nM; in assay [2], 100 to 1000 nM; in assay [3], 1500 to 3000 nM; in assay [4], 100 to 1000 nM.
`CC(C)n1cc(-c2ccnc3[nH]c(C4CCN(CCN5CCN(CC6CCN(c7ncc(C(=O)NC8C(C)(C)C(Oc9ccc(C#N)c(Cl)c9)C8(C)C)cn7)CC6)CC5)CC4)cc23)ccc1=O` (stereo not shown) [Compound I-74, N-[3-(3-chloro-4-cyano-phenoxy)-2,2,4,4-tetramethyl-cyclobutyl]-2-[4-[[4-[2-[4-[4-(1-isopropyl-6-oxo-3-pyridyl)-1H-pyrrolo [2,3-b]pyridin-2-yl]-1-piperidyl]ethyl]piperazin-1-yl]methyl]-1-piperidyl]pyrimidine-5-carboxamide]: the GI50 in assay [1] is less than 100 nM; in assay [2] it was 100 to 1000 nM; in assay [3] it was less than 500 nM; in assay [4] it was less than 100 nM.
With `CCc1cnn2c(NCc3ccc(N4CCC(N5CCN(C6CN(c7ncc(C(=O)N[C@H]8C(C)(C)[C@H](Oc9ccc(C#N)c(Cl)c9)C8(C)C)cn7)C6)CC5)CC4)nc3)cc(N3CCCC[C@H]3CCO)nc12` [Compound I-86], the GI50 in assay [1] is less than 100 nM; in assay [2], less than 100 nM; in assay [3], less than 500 nM; in assay [4] it was less than 100 nM.
As for `CC1(C)[C@H](NC(=O)c2cnc(N3CCC(CN4CCN(CCN5C/C=C/CCOc6cccc(c6)-c6ccnc(n6)Nc6cccc(c6)C5)CC4)CC3)nc2)C(C)(C)[C@H]1Oc1ccc(C#N)c(Cl)c1` [Compound I-94], the GI50 in assay [1] is more than 3500 nM; in assay [2] it was 1000 to 3500 nM; in assay [3] it was more than 3000 nM; in assay [4] it was 100 to 1000 nM.
`Cc1ncc(-c2nc(Nc3ccc(C(=O)N4CC[C@H](N(C)CCOC5CCN(c6ncc(C(=O)N[C@H]7C(C)(C)[C@H](Oc8ccc(C#N)c(Cl)c8)C7(C)C)cn6)CC5)C4)cc3)ncc2F)n1C(C)C` [Compound I-95, N-[3-(3-chloro-4-cyano-phenoxy)-2,2,4,4-tetramethyl-cyclobutyl]-2-[4-[2-[[(3S)-1-[4-[[5-fluoro-4-(3-isopropyl-2-methyl-imidazol-4-yl)pyrimidin-2-yl]amino]benzoyl]pyrrolidin-3-yl]-methyl-amino]ethoxy]-1-piperidyl]pyrimidine-5-carboxamide]: the GI50 in assay [1] lay in the range of 1000 to 3500 nM; in assay [2], 1000 to 3500 nM; in assay [3], 500 to 1500 nM; in assay [4], 1000 to 3500 nM.
As for `Cc1ncc(-c2nc(Nc3ccc(C(=O)N4CC[C@H](N(C)CCOCCOCCOC5CCN(c6ncc(C(=O)N[C@H]7C(C)(C)[C@H](Oc8ccc(C#N)c(Cl)c8)C7(C)C)cn6)CC5)C4)cc3)ncc2F)n1C(C)C` [Compound I-96], the GI50 fell in the range of 1000 to 3500 nM in assay [1], 1000 to 3500 nM in assay [2], 1500 to 3000 nM in assay [3] and 100 to 1000 nM in assay [4].
For `Cc1ncc(-c2nc(Nc3ccc(C(=O)N4CC[C@H](N(C)CCOCCOCCOCCOCCOC5CCN(c6ncc(C(=O)N[C@H]7C(C)(C)[C@H](Oc8ccc(C#N)c(Cl)c8)C7(C)C)cn6)CC5)C4)cc3)ncc2F)n1C(C)C` [Compound I-97], the GI50 was 1000 to 3500 nM in assay [1], 1000 to 3500 nM in assay [2], 1500 to 3000 nM in assay [3] and 1000 to 3500 nM in assay [4].
Regarding `CCc1cnn2c(NCc3ccc(OCCCN4CCN(CC5CCN(c6ccc(C(=O)N[C@H]7C(C)(C)[C@H](Oc8ccc(C#N)c(Cl)c8)C7(C)C)cc6)CC5)CC4)nc3)cc(N3CCCC[C@@H]3CCO)nc12` [II-1, N-((1r,3r)-3-(3-chloro-4-cyanophenoxy)-2,2,4,4-tetramethylcyclobutyl)-4-(4-((4-(3-((5-(((3-ethyl-5-((R)-2-(2-hydroxyethyl)piperidin-1-yl)pyrazolo[1,5-a]pyrimidin-7-yl)amino)methyl)pyridin-2-yl)oxy)propyl)piperazin-1-yl)methyl)piperidin-1-yl)benzamide], the GI50 was less than 100 nM in assay [1], 100 to 1000 nM in assay [2], less than 500 nM in assay [3] and less than 100 nM in assay [4].
